Converted amounts (≈) assume the structure as drawn.
Key:
Escherichia coli [1] = assay: Minimum inhibitory activity against Escherichia coli GC 4559; type: functional
Escherichia coli [2] = assay: Minimum inhibitory activity against Escherichia coli GC 4560; type: functional
Enterococcus faecalis [3] = assay: Minimum inhibitory activity against Enterococcus faecalis GC 2242 (VRE); type: functional
Enterococcus faecalis [4] = assay: Minimum inhibitory activity against Enterococcus faecalis GC 4555 (ATCC); type: functional
[5] = Minimum inhibitory activity against MSCNS GC 646; type: functional
[6] = Minimum inhibitory activity against Streptococcus pneumoniae GC1894 (PRSP); type: functional
[7] = Minimum inhibitory activity in presence of 4% bovine serum albumin against Streptococcus pneumoniae GC1894 (PRSP); type: functional
Staphylococcus aureus [8] = assay: Minimum inhibitory activity against Staphylococcus aureus GC 1131 (MRSA); type: functional
Staphylococcus aureus [9] = assay: Minimum inhibitory activity against Staphylococcus aureus GC 2216 (ATCC); type: functional
Staphylococcus aureus [10] = assay: Minimum inhibitory activity against Staphylococcus aureus GC 4543 (MSSA); type: functional
[11] = biological target: T1, UDP-N-acetylmuramate--L-alanine ligase (Staphylococcus aureus, UniProt O31211); assay: In vitro inhibitory activity against Staphylococcus aureus UDP-N-acetylmuramoyl-L-alanine synthetase
T1 sequence (O31211 whole entry): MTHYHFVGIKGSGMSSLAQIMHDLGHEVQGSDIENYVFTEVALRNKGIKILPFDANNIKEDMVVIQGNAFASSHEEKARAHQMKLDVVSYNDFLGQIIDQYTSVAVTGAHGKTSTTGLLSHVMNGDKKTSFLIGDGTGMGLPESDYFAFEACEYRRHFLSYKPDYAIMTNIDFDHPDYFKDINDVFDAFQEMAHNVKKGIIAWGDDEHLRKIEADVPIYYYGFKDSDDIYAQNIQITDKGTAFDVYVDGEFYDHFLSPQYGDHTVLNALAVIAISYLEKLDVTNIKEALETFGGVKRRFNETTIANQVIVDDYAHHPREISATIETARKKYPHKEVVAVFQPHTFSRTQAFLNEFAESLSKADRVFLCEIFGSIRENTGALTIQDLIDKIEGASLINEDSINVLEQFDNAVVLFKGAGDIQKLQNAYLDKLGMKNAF

[12] = biological target: T2, UDP-N-acetylenolpyruvoylglucosamine reductase (Staphylococcus aureus, UniProt P61431); assay: In vitro inhibitory activity against Staphylococcus aureus UDP-N-acetylmuramate dehydrogenase
T2 sequence (P61431 whole entry): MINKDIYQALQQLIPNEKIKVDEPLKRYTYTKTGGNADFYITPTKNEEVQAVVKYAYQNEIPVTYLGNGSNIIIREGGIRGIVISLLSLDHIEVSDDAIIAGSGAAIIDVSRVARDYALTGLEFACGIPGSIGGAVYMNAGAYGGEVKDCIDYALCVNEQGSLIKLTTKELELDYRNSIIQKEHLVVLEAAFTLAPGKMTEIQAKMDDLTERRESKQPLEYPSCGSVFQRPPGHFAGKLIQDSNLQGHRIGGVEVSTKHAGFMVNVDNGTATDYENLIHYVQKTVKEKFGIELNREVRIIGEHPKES

[13] = biological target: T3, UDP-N-acetylmuramoylalanine--D-glutamate ligase (Staphylococcus aureus, UniProt P0A091); assay: In vitro inhibitory activity against Staphylococcus aureus UDP-N-acetylmuramoyl-L-alanyl-D-glutamate synthetase
T3 sequence (P0A091 whole entry): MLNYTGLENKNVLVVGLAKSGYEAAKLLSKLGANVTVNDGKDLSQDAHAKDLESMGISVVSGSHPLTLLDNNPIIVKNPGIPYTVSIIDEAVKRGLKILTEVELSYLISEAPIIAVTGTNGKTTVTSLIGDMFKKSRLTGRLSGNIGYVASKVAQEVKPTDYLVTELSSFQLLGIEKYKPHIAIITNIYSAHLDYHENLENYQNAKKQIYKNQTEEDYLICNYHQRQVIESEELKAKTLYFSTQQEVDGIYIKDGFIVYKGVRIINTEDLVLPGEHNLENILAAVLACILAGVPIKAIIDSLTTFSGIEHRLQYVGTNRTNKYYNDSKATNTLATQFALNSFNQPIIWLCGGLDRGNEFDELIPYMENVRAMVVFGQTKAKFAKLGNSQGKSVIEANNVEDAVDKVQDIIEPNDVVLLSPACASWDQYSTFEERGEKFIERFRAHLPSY

| MIC (Escherichia coli [1]) [µg/mL] | MIC (Escherichia coli [2]) [µg/mL] | MIC (Enterococcus faecalis [3]) [µg/mL] | MIC (Enterococcus faecalis [4]) [µg/mL] | MIC ([5]; Staphylococcus) [µg/mL] | MIC [6] [µg/mL] | MIC [7] [µg/mL] | MIC (Staphylococcus aureus [8]) [µg/mL] | MIC (Staphylococcus aureus [9]) [µg/mL] | MIC (Staphylococcus aureus [10]) [µg/mL] | IC50 [11] [µM] | IC50 [12] [µM] | IC50 [13] [µM] | MIC [5] [µg/mL] | Structure (SMILES) |
| --- | --- | --- | --- | --- | --- | --- | --- | --- | --- | --- | --- | --- | --- | --- |
| > 128 | > 128 | > 128 | > 128 | 128 (≈ 492 µM) | 32 (≈ 123 µM) | > 128 | 128 (≈ 492 µM) | 128 (≈ 492 µM) | 128 (≈ 492 µM) | > 96 | > 96 | > 96 | – | CC(C)c1ccc(-n2nc3c(c2O)SCC3)cc1 |
| > 128 | 128 (≈ 389 µM) | 64 (≈ 195 µM) | > 128 | 128 (≈ 389 µM) | 64 (≈ 195 µM) | > 128 | 128 (≈ 389 µM) | 64 (≈ 195 µM) | 128 (≈ 389 µM) | > 76 | 33.5 | 74.5 | – | Oc1c2c(nn1-c1ccc(Cl)cc1)CC(c1ccccc1)S2 (configuration not stated) |
| > 128 | > 128 | 32 (≈ 108 µM) | 16 (≈ 53.8 µM) | 1 (≈ 3.36 µM) | 1 (≈ 3.36 µM) | > 128 | 16 (≈ 53.8 µM) | 2 (≈ 6.73 µM) | 4 (≈ 13.5 µM) | 38.4 | 12.1 | 30.3 | – | Oc1c2c(nn1-c1ccc(Br)cc1)CCS2 |
| > 128 | > 128 | 2 (≈ 7.5 µM) | 32 (≈ 120 µM) | 16 (≈ 60 µM) | 4 (≈ 15 µM) | > 128 | 16 (≈ 60 µM) | 32 (≈ 120 µM) | 16 (≈ 60 µM) | > 93.7 | > 93.7 | 64.1 | – | CC1Cc2nn(-c3ccc(Cl)cc3)c(O)c2S1 (configuration not stated) |
| > 128 | > 128 | 16 (≈ 45.2 µM) | 32 (≈ 90.3 µM) | > 128 | 2 (≈ 5.65 µM) | > 128 | 32 (≈ 90.3 µM) | 32 (≈ 90.3 µM) | 32 (≈ 90.3 µM) | > 70.6 | > 70.6 | > 70.6 | – | Oc1c2c(nn1-c1cc(C(F)(F)F)cc(C(F)(F)F)c1)CCS2 |

Second part, the compound before the results:

| Structure (SMILES) | MIC (Escherichia coli [1]) [µg/mL] | MIC (Escherichia coli [2]) [µg/mL] | MIC (Enterococcus faecalis [3]) [µg/mL] | MIC (Enterococcus faecalis [4]) [µg/mL] | MIC ([5]; Staphylococcus) [µg/mL] | MIC [6] [µg/mL] | MIC [7] [µg/mL] | MIC (Staphylococcus aureus [8]) [µg/mL] | MIC (Staphylococcus aureus [9]) [µg/mL] | MIC (Staphylococcus aureus [10]) [µg/mL] | IC50 [11] [µM] | IC50 [12] [µM] | IC50 [13] [µM] | MIC [5] [µg/mL] |
| --- | --- | --- | --- | --- | --- | --- | --- | --- | --- | --- | --- | --- | --- | --- |
| Oc1c2c(nn1-c1cccc(C(F)(F)F)c1)CCS2 | > 128 | 128 (≈ 447 µM) | 8 (≈ 27.9 µM) | 16 (≈ 55.9 µM) | 2 (≈ 6.99 µM) | 0.5 (≈ 1.75 µM) | > 128 | 4 (≈ 14 µM) | 2 (≈ 6.99 µM) | 1 (≈ 3.49 µM) | > 87.3 | 73.4 | 67.1 | – |
| Oc1c2c(nn1-c1ccccc1C(F)(F)F)CCS2 | > 128 | 128 (≈ 447 µM) | 16 (≈ 55.9 µM) | 32 (≈ 112 µM) | 64 (≈ 224 µM) | 8 (≈ 27.9 µM) | > 128 | 32 (≈ 112 µM) | 32 (≈ 112 µM) | 32 (≈ 112 µM) | > 87.3 | > 87.3 | > 87.3 | – |
| Oc1c2c(nn1-c1ccc(C(F)(F)F)cc1)CCS2 | > 128 | 128 (≈ 447 µM) | 8 (≈ 27.9 µM) | 16 (≈ 55.9 µM) | 4 (≈ 14 µM) | 0.5 (≈ 1.75 µM) | > 128 | 8 (≈ 27.9 µM) | 2 (≈ 6.99 µM) | 1 (≈ 3.49 µM) | > 87.3 | 38.4 | 43 | – |
| Oc1c2c(nn1-c1ccccc1)CCS2 | > 128 | > 128 | 4 (≈ 18.3 µM) | 32 (≈ 147 µM) | – | 4 (≈ 18.3 µM) | > 128 | 16 (≈ 73.3 µM) | 16 (≈ 73.3 µM) | 32 (≈ 147 µM) | > 115 | > 115 | 94.8 | 16 (≈ 73.3 µM) |
| CN[C@H](CC(C)C)C(=O)N[C@H]1C(=O)N[C@@H](CC(N)=O)C(=O)N[C@H]2C(=O)N[C@H]3C(=O)N[C@H](C(=O)N[C@H](C(=O)O)c4cc(O)cc(O)c4-c4cc3ccc4O)[C@H](O)c3ccc(c(Cl)c3)Oc3cc2cc(c3O[C@@H]2O[C@H](CO)[C@@H](O)[C@H](O)[C@H]2O[C@H]2C[C@](C)(N)[C@H](O)[C@H](C)O2)Oc2ccc(cc2Cl)[C@H]1O [VANCOMYCIN] | > 128 | 0.25 (≈ 0.173 µM) | > 128 | 2 (≈ 1.38 µM) | – | < 0.12 | – | – | – | – | – | – | – | – |
